According to patent US8178727B2, “Bis(arylmethylidene)acetone compound, anti-cancer agent, carcinogenesis-preventive agent, inhibitor of expression of Ki-Ras, ErbB2, c-Myc and Cycline D1, β-catenin-degrading agent, and p53 expression enhancer” (National University Corporation Tohoku University, priority 2005, dated 2012):

How the values were obtained:
DLD-1 cells = test: Cell growth inhibition (Cell Counting Kit 8, Wst-8), 96 h exposure; assay type: cell-based; conditions: Homo sapiens, DLD-1 colon cancer cells
Method: (§1) The inhibitory efficacy of bis(arylmethylidene)-acetones on the development and growth of malignant tumor cells was examined. Curcumin and bis(arylmethylidene)-acetone compounds were dissolved in DMSO to obtain 50 mM compound solutions for storage. Sixteen human cancer cell lines (HCT116, DLD-1, SW620. LK87, PC3, MCF7, PK9, HuCCT-1, SH10TC, GCIY, G361, 8505c, HepG2, A431, ACHN, OVK18) were obtained from the Medical Cellular Resources Center of the Institute of Development, Aging, and Cancer at Tohoku University, Japan. These cells were cultured at 37° C. under 5% CO2 conditions using as a culture medium RPMI1640 (Sigma Aldrich) supplemented with 10% fetal bovine serum and kanamycin (Wako Pure Chemical Industries: final concentration, […]).
(§2) Three human colon-cancer cell lines (DLD-1, HCT116, SW620) were used in screening for cell growth inhibitory efficacy. The test compounds (bis(arylmethylidene)-acetones) were added to the culture media at the target concentrations, and exposure to the compounds was then continued for 96 hours in order to investigate not only acute cell damages but also effects on the cells, involving intracellular metabolic responses and others. The cell growth inhibitory efficacy was then evaluated with Cell Counting Kit 8 (Wst-8 Test, Dojindo Laboratories, Japan). In this analysis method, tetrazolium salt Wst-8 is degraded by reduced form nicotinamide adenine dinucleotide (nicotinamide adenine dinucleotide H; NADH). The activity of NADH is maintained only inside viable cells, and Wst-8 becomes colored upon degradation. The optical absorbance at 450 nm is measured, whereby the number of viable cells can be indirectly estimated.
(§3) Each cell line was placed on a 96-well microtiter plate at a cell density of 2500 to 5000 cells/100 μL/well in accordance with the growth rate of the cell line. After cell cultivation for 24 hours, […] medium containing each compound was added. The final concentration of each test compound is 0, 0.1, 0.25, 0.5, 1, 2.5, 5, 10, 25, 50, and 100 μM (11 levels). The maximum final concentration of DMSO used as a solvent was 1%. After culturing for 96 hours, the medium was aspirated away, followed by washing with PBS. Next, 100 μL of a medium containing a solution of Cell Counting Kit 8 at 1/10 (v/v) was added. Culturing was then continued for one hour. Thereafter, each optical absorbance at 450 nm (620 nm background) was measured with an MPR-A4i microplate reader (Tosoh, Japan). A curve of the inhibition of cell growth was constructed using the measured optical absorbances.

HCT116 cells = test: as above; assay type: cell-based; conditions: Homo sapiens, HCT-116, HCT116 colon cancer cells
Method: as §1, §2, §3

SW620 cells = test: as above; assay type: cell-based; conditions: Homo sapiens, SW-620, SW620 colon cancer cells
Method: as §1, §2, §3

colon-cancer cells = test: Growth inhibition compared with anti-cancer agents 5-FU, CPT11, CDDP (FIG. 6); assay type: cell-based, human
Method: as §1, §3
Stored solutions of three anti-cancer agents: 5-FU, CDDP, and CPT11, prepared beforehand (1 mM), were suitably diluted prior to use, and also added to culture media.

[1] = tested on: cell lines derived from stomach, lung, breast, ovarian, prostate, pancreatic, bile duct, thyroid cancer and melanoma; test: Growth inhibition compared with 5-FU, CPT11, CDDP in cell lines of other cancers (FIG. 6); assay type: cell-based, human; conditions: cell lines from a variety of other cancers
Method: as §1
as §3, with “After culturing for 96 hours, the medium was aspirated away, followed by washing with PBS. Next, 100 μL of a medium containing a solution of Cell Counting Kit 8 at 1/10 (v/v) was added. Culturing was then continued for one hour.” left out, “absorbances. […]” for “absorbances.”

[2] = tested on: A431, ACHN, and HepG2 cells; test: Growth inhibition compared with conventional anti-cancer agents (FIG. 6); assay type: cell-based, human
Method: as §1
as §3, with “After culturing for 96 hours, the medium was aspirated away, followed by washing with PBS. Next, 100 μL of a medium containing a solution of Cell Counting Kit 8 at 1/10 (v/v) was added. Culturing was then continued for one hour.” left out, “absorbances. […]” for “absorbances.”

β-catenin = test: Western blot of β-catenin degrading activity; assay type: cell-based, human; conditions: FIG. 9
Method: Western-blot analysis was used to investigate effects on the expression of oncogene products, ErbB2, c-Myc, and Cyclin D1, whose activity is enhanced in a variety of cancer cells, and to investigate the activity of degrading β-catenin, which plays an important role in the initial stages of carcinogenesis to the formation and development of tumors.
(§4) Western-blot analysis was performed in the following manner:
(§5) After HCT116 cells were treated with each test compound, plate-adhered cells were recovered along with cells suspended in supernatants, centrifuged, and pelleted. The cells were then lysed with a lysis solution (40 mM Tris-HCl, 1% Triton X-100, 2 mM MgCl2) supplemented with 200-μM phenylmethanesulfonyl fluoride (PMSF), 500-μM benzamidine, and 1-μg/mL leupeptin. After the mixture was allowed to stand on ice for 30 minutes, it was centrifuged for 10 minutes at 4° C. and 10000×g, and supernatants were recovered. To the resultant supernatant was added equimolarly 2× sample buffer (0.1 M Tris-HCl (pH 6.8), 4% SDS, 20% glycerol, and 12% β-mercaptoethanol), and the mixture was shaken for 3 minutes at 4° C., then heated to 95° C. for 4 minutes, and then stored at −20° C. until use. The cell lysates were phoresed on 8% SDS-PAGE, transferred to a Hybond-P membrane (Amersham Biosciences), and made to react with various monoclonal antibodies described below.
(§6) Monoclonal antibodies: anti-actin antibody (A2066, Sigma Aldrich), anti-β-catenin antibody (6101 53, BD-transduction Laboratories), anti-p53 antibody (FL393: sc-6243HRP), anti-cyclin D1 antibody (M-20: sc-718), anti-c-Myc antibody (9E10: sc-40), anti-k-Ras-2B antibody (C-19: sc-521), and anti-c-ErbB2 antibody (A0485, DAKO Cytomation).

p53 = test: Western blot of p53 gene product expression; assay type: cell-based, human; conditions: FIG. 11
Method: as §4, §5, §6
Curcumin is known to have activity in degrading p53 gene products. Degradation, genetic expression reduction, instability, or other deficiencies of the tumor suppressor gene p53 gene products, result in disadvantageous conditions as concerns cell malignancy and tendency to become cancerous.

[3] = tested on: primary cultured hepatic cells (hNHeps); test: Toxicity test on normal cells; assay type: cell-based; conditions: FIG. 13
C57BL/6J mice = test: In vivo toxicity, mixed feed in high-fat diet; set-up: species or system mouse; conditions: oral, 0.1% (w/w) in high-fat diet HFD35, 5 mg/day, more than 120 days
Method: The synthetic compounds of the present invention are derived from curcumin, which is originally a food item. […] As a further test for in vivo toxicity, inbred C57BL/6J mice received daily an oral intake of 5 g of mixed feed (test compound dose: 5 mg/day) wherein each test compound was admixed at 0.1% (weight/weight) with a high-fat diet (HFD35, CLEA Japan).

Apc580D mice = test: Survival in familial adenomatous polyposis mouse model; assay type: in vivo
Source text: Familial adenomatous polyposis (FAP) is the most appropriate model for considering the multistage process of carcinogenesis in colon cancer. The APC gene is a causative gene in this illness. This gene is a tumor suppressor gene and is linked to the degradation of the β-catenin gene product. The FAP mouse model Aoc580D (Apc580D/+mice, wherein a mutation was introduced into the mouse Apc gene by homologous genetic recombination) is heterozygous for a genetic mutation in which codon 580 of the APC gene is a stop codon (i.e., the Apc gene product is truncated at codon 580). These mice present hundreds of polyps in the gastrointestinal tract in the same manner as human FAP. […] Reference: Shibata H. et al., Science, 278, pp. 120-123 “Rapid colorectal adenoma formation initiated by conditional targeting of the Apc gene,” 1997.
Analysis was performed on therapeutic models (in which administration was initiated around the age of 8 weeks, when polyposis had already been observed) and prophylactic models (in which administration was initiated around the age of 4 weeks, when polyposis had not been observed) of carcinogenesis in the colon. Apc580D mice (2 animals) given daily an oral intake of HFD35 alone at a dose of 5 g were used as a control.

SMILES: COc1ccc(/C=C/C(=O)/C=C/c2ccc(OC)c(O)c2)cc1O [GO-Y023, (1E,4E)-1,5-bis-(3-hydroxy-4-methoxyphenyl)penta-1,4-dien-3-one]
- melting point: 195 to 197 °C

SMILES: COc1cc(/C=C/C(=O)/C=C/c2cc(OC)c(OCCO)c(OC)c2)cc(OC)c1OCCO [GO-Y044, (1E,4E)-1,5-bis-[4-(2-hydroxyethoxy)-3,5-dimethoxyphenyl]penta-1,4-dien-3-one]
- melting point: 133 to 135 °C

SMILES: COCOc1c(OC)cc(/C=C/C(=O)/C=C/c2cc(OC)c(OCOC)c(OC)c2)cc1OC [GO-Y031, (1E,4E)-1,5-bis-(3,5-dimethoxy-4-methoxymethoxyphenyl)penta-1,4-dien-3-one]
- IC50 (DLD-1 cells): 250 nM
- IC50 (HCT116 cells): 250 nM
- IC50 (SW620 cells): 500 nM
- growth inhibitory activity relative to 5-FU, CPT11 and CDDP (colon-cancer cells): much stronger
- anti-cancer activity relative to 5-FU, CPT11, and CDDP [1]: strong anti-cancer activity
- effect relative to conventional anti-cancer agents [2]: do not exert biological effects surpassing conventional anti-cancer agents
- concentration at which β-catenin degrading activity is displayed (β-catenin): 1 µM
- β-catenin-degrading activity compared with BDMPP (β-catenin): equal to or greater than that of BDMPP
- expression of p53 after 30 hours (p53): enhanced expression of p53
- transient drop in expression of p53 6 to 12 hours after administration (p53): not seen
- cytotoxicity to normal cells [3]: non-cytotoxic
- growth inhibition on normal cells [3]: no growth inhibition was observed
- bodily abnormalities including weight loss (C57BL/6J mice): No bodily abnormalities, including weight loss, were observed
- average survival, anti-carcinogenically prophylactic model (still alive) (Apc580D mice; oral 5 mg/day in HFD35, started around 4 weeks of age): ≥ 110.0 days
- survival time, therapeutic model (Apc580D mice; oral 5 mg/day in HFD35, started around 8 weeks of age, average where several mice): 148.0 days

SMILES: COCCOCOc1c(OC)cc(/C=C/C(=O)/C=C/c2cc(OC)c(OCOCCOC)c(OC)c2)cc1OC [GO-Y039, (1E,4E)-1,5-bis-(3,5-dimethoxy-4-methoxyethoxymethoxyphenyl)penta-1,4-dien-3-one]
- melting point: 61 to 63 °C

SMILES: C#CCOc1c(OC)cc(/C=C/C(=O)/C=C/c2cc(OC)c(OC)c(OC)c2)cc1OC [GO-Y060, (1E,4E)-1-(3,5-dimethoxy-4-prop-2-ynyloxyphenyl)-5-(3,4,5-trimethoxyphenyl)penta-1,4-dien-3-one]
- melting point: 118 to 120 °C

SMILES: COc1cc(Br)cc(/C=C/C(=O)/C=C/c2cc(Br)cc(OC)c2)c1 [GO-033, (1E,4E)-1,5-bis-(3-bromo-5-methoxyphenyl)penta-1,4-dien-3-one]
- melting point: 181 to 183 °C

SMILES: COc1cc(/C=C/C(=O)/C=C/c2cc(OC)c(OCCN=[N+]=[N-])c(OC)c2)cc(OC)c1OCCN=[N+]=[N-] [GO-Y065, (1E,4E)-1,5-bis-[4-(2-azidoethoxy)-3,5-dimethoxyphenyl]penta-1,4-dien-3-one]
- melting point: 107 to 109 °C

SMILES: COc1cc(/C=C/C(=O)/C=C/c2cc(OC)c(O)c(OC)c2)cc(OC)c1O [GO-Y026, (1E,4E)-1,5-bis-(4-hydroxy-3,5-dimethoxyphenyl)penta-1,4-dien-3-one]
- melting point: 166 to 168 °C

SMILES: O=C(/C=C/c1ccc2ccccc2c1)/C=C/c1ccc2ccccc2c1 [GO-Y011, (1E,4E)-1,5-dinaphthalen-2-yl-penta-1,4-dien-3-one]
- melting point: 244 to 246 °C

SMILES: O=C(/C=C/c1cc(O)cc(O)c1)/C=C/c1cc(O)cc(O)c1 (hydrate or solvate) [GO-Y038, (1E,4E)-1,5-bis-(3,5-dihydroxyphenyl)penta-1,4-dien-3-one]
- melting point: 298 to 300 °C (dec.)

SMILES: C#CCOc1c(OC)cc(/C=C/C(=O)/C=C/c2cc(OC)c(OCC#C)c(OC)c2)cc1OC [GO-Y048, (1E,4E)-1,5-bis-(3,5-dimethoxy-4-prop-2-ynyloxyphenyl)penta-1,4-dien-3-one]
- melting point: 162 to 164 °C

SMILES: COc1cc(/C=C/C(=O)/C=C/c2cc(OC)c(OC)c(OC)c2)cc(OC)c1OC [GO-Y016, (1E,4E)-1,5-bis-(3,4,5-trimethoxyphenyl)penta-1,4-dien-3-one]
- IC50 (DLD-1 cells): 250 nM
- IC50 (HCT116 cells): 250 nM
- IC50 (SW620 cells): 200 nM
- growth inhibitory activity relative to 5-FU, CPT11 and CDDP (colon-cancer cells): much stronger
- anti-cancer activity relative to 5-FU, CPT11, and CDDP [1]: strong anti-cancer activity
- effect relative to conventional anti-cancer agents [2]: do not exert biological effects surpassing conventional anti-cancer agents
- β-catenin-degrading activity compared with BDMPP (β-catenin): not
